Measured values as given in ChEMBL document CHEMBL3044636, “Effectiveness of five insecticides for the control of adults and young stages of Cacopsylla melanoneura (Förster) (Hemiptera: Psyllidae) in a semi-field trial” (2010).
Calls of active or inactive are those of the source. No cut-off for these calls is given here.

Assays:
Cacopsylla melanoneura [1] = test: Insecticidal activity against adult of Cacopsylla melanoneura in apple plant assessed as overwintered female mortality at 16.6 g/ha treated for 1 hr measured after 1 day relative to control; assay type: functional
Cacopsylla melanoneura [2] = test: Insecticidal activity against adult of Cacopsylla melanoneura in apple plant assessed as reduction of progeny per female at 16.6 g/ha treated for 7 days measured after 7 days; assay type: functional, organism-based
Cacopsylla melanoneura [3] = test: Insecticidal activity against adult of Cacopsylla melanoneura in apple plant assessed as overwintered female mortality at 16.6 g/ha treated for 7 days measured after 1 day relative to control; assay type: functional
Cacopsylla melanoneura [4] = test: Insecticidal activity against adult of Cacopsylla melanoneura in apple plant assessed as overwintered female mortality at 16.6 g/ha treated for 14 days measured after 3 days relative to control; assay type: functional
Cacopsylla melanoneura [5] = test: Insecticidal activity against young stage of Cacopsylla melanoneura in apple plant assessed as mortality at 16.6 g/ha treated for 7 days measured after 7 days relative to control; assay type: functional
Cacopsylla melanoneura [6] = test: Insecticidal activity against adult of Cacopsylla melanoneura in apple plant assessed as overwintered female mortality at 16.6 g/ha treated for 1 hr measured after 3 days relative to control; assay type: functional
Cacopsylla melanoneura [7] = test: Insecticidal activity against young stage of Cacopsylla melanoneura in apple plant assessed as mortality at 16.6 g/ha treated for 1 hr measured after 7 days relative to control; assay type: functional
Cacopsylla melanoneura [8] = test: Insecticidal activity against adult of Cacopsylla melanoneura in apple plant assessed as overwintered female mortality at 16.6 g/ha treated for 7 days measured after 3 days relative to control; assay type: functional
Cacopsylla melanoneura [9] = test: Insecticidal activity against adult of Cacopsylla melanoneura in apple plant assessed as reduction of progeny per female at 16.6 g/ha treated for 14 days measured after 7 days; assay type: functional, organism-based
Cacopsylla melanoneura [10] = test: Insecticidal activity against adult of Cacopsylla melanoneura in apple plant assessed as overwintered female mortality at 16.6 g/ha treated for 14 days measured after 1 day relative to control; assay type: functional
Cacopsylla melanoneura [11] = test: Insecticidal activity against young stage of Cacopsylla melanoneura in apple plant assessed as mortality at 16.6 g/ha treated for 14 days measured after 7 days relative to control; assay type: functional
Cacopsylla melanoneura [12] = test: Insecticidal activity against adult of Cacopsylla melanoneura in apple plant assessed as reduction of progeny per female at 16.6 g/ha treated for 1 hr measured after 7 days; assay type: functional, organism-based
Cacopsylla melanoneura [13] = test: Insecticidal activity against adult of Cacopsylla melanoneura in apple plant assessed as overwintered female mortality at 187.5 g/ha treated for 14 days measured after 1 day relative to control; assay type: functional
Cacopsylla melanoneura [14] = test: Insecticidal activity against adult of Cacopsylla melanoneura in apple plant assessed as overwintered female mortality at 187.5 g/ha treated for 7 days measured after 1 day relative to control; assay type: functional
Cacopsylla melanoneura [15] = test: Insecticidal activity against adult of Cacopsylla melanoneura in apple plant assessed as overwintered female mortality at 187.5 g/ha treated for 1 hr measured after 3 days relative to control; assay type: functional
Cacopsylla melanoneura [16] = test: Insecticidal activity against adult of Cacopsylla melanoneura in apple plant assessed as reduction of progeny per female at 187.5 g/ha treated for 1 hr measured after 7 days; assay type: functional, organism-based
Cacopsylla melanoneura [17] = test: Insecticidal activity against young stage of Cacopsylla melanoneura in apple plant assessed as mortality at 187.5 g/ha treated for 14 days measured after 7 days relative to control; assay type: functional
Cacopsylla melanoneura [18] = test: Insecticidal activity against adult of Cacopsylla melanoneura in apple plant assessed as reduction of progeny per female at 187.5 g/ha treated for 14 days measured after 7 days; assay type: functional, organism-based
Cacopsylla melanoneura [19] = test: Insecticidal activity against adult of Cacopsylla melanoneura in apple plant assessed as reduction of progeny per female at 187.5 g/ha treated for 7 days measured after 7 days; assay type: functional, organism-based
Cacopsylla melanoneura [20] = test: Insecticidal activity against adult of Cacopsylla melanoneura in apple plant assessed as overwintered female mortality at 187.5 g/ha treated for 7 days measured after 3 days relative to control; assay type: functional
Cacopsylla melanoneura [21] = test: Insecticidal activity against adult of Cacopsylla melanoneura in apple plant assessed as overwintered female mortality at 187.5 g/ha treated for 1 hr measured after 1 day relative to control; assay type: functional
Cacopsylla melanoneura [22] = test: Insecticidal activity against young stage of Cacopsylla melanoneura in apple plant assessed as mortality at 187.5 g/ha treated for 1 hr measured after 7 days relative to control; assay type: functional
Cacopsylla melanoneura [23] = test: Insecticidal activity against adult of Cacopsylla melanoneura in apple plant assessed as overwintered female mortality at 187.5 g/ha treated for 14 days measured after 3 days relative to control; assay type: functional
Cacopsylla melanoneura [24] = test: Insecticidal activity against young stage of Cacopsylla melanoneura in apple plant assessed as mortality at 187.5 g/ha treated for 7 days measured after 7 days relative to control; assay type: functional
Cacopsylla melanoneura [25] = test: Insecticidal activity against young stage of Cacopsylla melanoneura in apple plant assessed as mortality at 300 g/ha treated for 14 days measured after 7 days relative to control; assay type: functional
Cacopsylla melanoneura [26] = test: Insecticidal activity against adult of Cacopsylla melanoneura in apple plant assessed as overwintered female mortality at 300 g/ha treated for 1 hr measured after 1 day relative to control; assay type: functional
Cacopsylla melanoneura [27] = test: Insecticidal activity against young stage of Cacopsylla melanoneura in apple plant assessed as mortality at 300 g/ha treated for 7 days measured after 7 days relative to control; assay type: functional
Cacopsylla melanoneura [28] = test: Insecticidal activity against adult of Cacopsylla melanoneura in apple plant assessed as overwintered female mortality at 300 g/ha treated for 14 days measured after 3 days relative to control; assay type: functional
Cacopsylla melanoneura [29] = test: Insecticidal activity against young stage of Cacopsylla melanoneura in apple plant assessed as mortality at 300 g/ha treated for 1 hr measured after 7 days relative to control; assay type: functional
Cacopsylla melanoneura [30] = test: Insecticidal activity against adult of Cacopsylla melanoneura in apple plant assessed as overwintered female mortality at 300 g/ha treated for 7 days measured after 3 days relative to control; assay type: functional
Cacopsylla melanoneura [31] = test: Insecticidal activity against adult of Cacopsylla melanoneura in apple plant assessed as reduction of progeny per female at 300 g/ha treated for 14 days measured after 7 days; assay type: functional, organism-based
Cacopsylla melanoneura [32] = test: Insecticidal activity against adult of Cacopsylla melanoneura in apple plant assessed as overwintered female mortality at 300 g/ha treated for 14 days measured after 1 day relative to control; assay type: functional
Cacopsylla melanoneura [33] = test: Insecticidal activity against adult of Cacopsylla melanoneura in apple plant assessed as reduction of progeny per female at 300 g/ha treated for 1 hr measured after 7 days; assay type: functional, organism-based
Cacopsylla melanoneura [34] = test: Insecticidal activity against adult of Cacopsylla melanoneura in apple plant assessed as overwintered female mortality at 300 g/ha treated for 7 days measured after 1 day relative to control; assay type: functional
Cacopsylla melanoneura [35] = test: Insecticidal activity against adult of Cacopsylla melanoneura in apple plant assessed as overwintered female mortality at 300 g/ha treated for 1 hr measured after 3 days relative to control; assay type: functional
Cacopsylla melanoneura [36] = test: Insecticidal activity against adult of Cacopsylla melanoneura in apple plant assessed as reduction of progeny per female at 300 g/ha treated for 7 days measured after 7 days; assay type: functional, organism-based

CC[C@H](C)[C@H]1O[C@]2(C=C[C@@H]1C)C[C@@H]1C[C@@H](C/C=C(\C)[C@@H](O[C@H]3C[C@H](OC)[C@@H](O[C@H]4C[C@H](OC)[C@@H](O)[C@H](C)O4)[C@H](C)O3)[C@@H](C)/C=C/C=C3\CO[C@@H]4[C@H](O)C(C)=C[C@@H](C(=O)O1)[C@]34O)O2.CO[C@H]1C[C@H](O[C@H]2[C@H](C)O[C@@H](O[C@@H]3/C(C)=C/C[C@@H]4C[C@@H](C[C@]5(C=C[C@H](C)[C@@H](C(C)C)O5)O4)OC(=O)[C@@H]4C=C(C)[C@@H](O)[C@H]5OC/C(=C\C=C\[C@@H]3C)[C@]54O)C[C@@H]2OC)O[C@@H](C)[C@@H]1O [ABAMECTIN] was tested, and the Activity (Cacopsylla melanoneura [1]) was 33.3%, the Activity (Cacopsylla melanoneura [2]) was “Active” and the Activity (Cacopsylla melanoneura [3]) was 16.7%. It also gave an Activity (Cacopsylla melanoneura [4]) of 60%, an Activity (Cacopsylla melanoneura [5]) of 95% and an Activity (Cacopsylla melanoneura [6]) of 36.7%. The Activity (Cacopsylla melanoneura [7]) was 75%, the Activity (Cacopsylla melanoneura [8]) was 30% and the Activity (Cacopsylla melanoneura [9]) was “Active”. For the same compound, the Activity (Cacopsylla melanoneura [10]) was 43.3%, the Activity (Cacopsylla melanoneura [11]) was 71.7% and the Activity (Cacopsylla melanoneura [12]) was “Active”.
CCOC(=O)NCCOc1ccc(Oc2ccccc2)cc1 [PHENOXYCARB] showed an Activity (Cacopsylla melanoneura [13]) of 23.3%, an Activity (Cacopsylla melanoneura [14]) of 40% and an Activity (Cacopsylla melanoneura [15]) of 16.7%. The Activity (Cacopsylla melanoneura [16]) was “Active”, the Activity (Cacopsylla melanoneura [17]) was 100% and the Activity (Cacopsylla melanoneura [18]) was “Active”. The Activity (Cacopsylla melanoneura [19]) was “Active”, the Activity (Cacopsylla melanoneura [20]) was 60% and the Activity (Cacopsylla melanoneura [21]) was 3.3%. For the same compound, the Activity (Cacopsylla melanoneura [22]) was 93.3%, the Activity (Cacopsylla melanoneura [23]) was 53.3% and the Activity (Cacopsylla melanoneura [24]) was 91.7%.
With O=C(NC(=O)c1c(F)cccc1F)Nc1ccc(Cl)cc1 [DIFLUBENZURON] the Activity (Cacopsylla melanoneura [25]) was 86.7%, the Activity (Cacopsylla melanoneura [26]) was 20% and the Activity (Cacopsylla melanoneura [27]) was 100%. The Activity (Cacopsylla melanoneura [28]) was 63.3%, the Activity (Cacopsylla melanoneura [29]) was 98.3% and the Activity (Cacopsylla melanoneura [30]) was 56.7%. The Activity (Cacopsylla melanoneura [31]) was “Active”, the Activity (Cacopsylla melanoneura [32]) was 46.7% and the Activity (Cacopsylla melanoneura [33]) was “Active”. The Activity (Cacopsylla melanoneura [34]) was 30%, the Activity (Cacopsylla melanoneura [35]) was 56.7% and the Activity (Cacopsylla melanoneura [36]) was “Active”.
